The subject of assay [1] is Candida glabrata ATCC 2001 (strain H). Kind of assay: MIC, broth microdilution (CLSI M27-A3), yeast strain H. The class given is cell-based. The note with it: Nakaseomyces glabratus, ATCC2001; MIC-0, strain H, 35 °C 48 h. As for the experimental part:
(§1) The final concentrations of compounds 3, 4, 7a, 7b, 9, and 16, as well as that of TOB tested in this study ranged from 0.24–62.5 μg/mL. CAS was used as a positive control and the final concentrations tested for CAS ranged from 0.03–31.3 μg/mL. Briefly, overnight yeast cultures were grown in yeast peptone dextrose (YPD) broth and the cell density was adjusted to an OD600 of 0.12 (~1 × 10^6 CFU/mL) by using a spectrophotometer. Yeast cell suspensions were further diluted to achieve 1–5 × 10^3 CFU/mL in RPMI 1640 medium, and 100 μL of these yeast cells was added to 96-well microtiter plates containing RPMI 1640 medium and titrated compounds. Each test was performed in triplicate. The plates were incubated at 35 °C for 48 h.

Assay [2] relates to Candida glabrata clinical isolate CG3. The experiment in a line: MIC, broth microdilution (CLSI M27-A3), CG3. The note with it: Nakaseomyces glabratus; MIC-0, CG3, 35 °C 48 h. The format is cell-based. On the procedure: as §1
A general note: Broth dilution looks for growth in wells or tubes with falling amounts of substance.

The test system of assay [3] is C. albicans ATCC MYA-2310(S) (strain E). Kind of assay: MIC, broth microdilution (CLSI M27-A3), yeast strain E. The format is cell-based. The conditions noted are these: Candida albicans; MIC-0, strain E, 35 °C 48 h. As for the experimental part: as §1
Assay [4] concerns C. albicans ATCC MYA-1003(R) (strain G). The experiment in a line: MIC, broth microdilution (CLSI M27-A3), yeast strain G. The class given is cell-based. The note with it: Candida albicans; MIC-0, strain G, 35 °C 48 h. As for the experimental part:
as §1

Assay [5] relates to Aspergillus terreus ATCC MYA-3633 (strain M). Kind of assay: MIC, filamentous fungi (CLSI M38-A2), strain M. The format is cell-based. The note with it: MIC-0, strain M, 35 °C 72 h. As for the experimental part:
(§2) The spores were harvested from sporulating cultures growing on potato dextrose agar (PDA) by filtration through sterile glass wool and enumerated by using a hemocytometer (Hausser Scientific, Horsham, PA, USA) to obtain the desired inoculum size. Two-fold serial dilutions of compounds 3, 4, 7a, 7b, 9, and 16, as well as CAS and TOB were made in sterile 96-well microtiter plates to obtain the final concentration range of 0.24–62.5 μg/mL for TOB and TOB derivatives as well as 0.03–31.3 μg/mL for CAS in the RPMI 1640 medium. The spore suspensions were added to the wells to afford a final concentration of 5 × 10^5 spores/mL. The plates were incubated at 35 °C for 72 h. […] Each test was performed in triplicate.

The test system of assay [6] is Candida parapsilosis clinical isolate CP3. Kind of assay: MIC, broth microdilution (CLSI M27-A3), CP3. The format is cell-based. The note with it: MIC-0, CP3, 35 °C 48 h. On the procedure:
as §1

Assay [7] has as its system C. albicans ATCC 64124 (strain B). Kind of assay: MIC, broth microdilution (CLSI M27-A3), yeast strain B. The format is cell-based. The note with it: Candida albicans, ATCC64124; MIC-0, strain B, 35 °C 48 h. On the procedure:
as §1

Assay [8] deals with C. albicans ATCC MYA-1237(R) (strain F). The experiment in a line: MIC, broth microdilution (CLSI M27-A3), yeast strain F. The conditions noted are these: Candida albicans; MIC-0, strain F, 35 °C 48 h. The class given is cell-based. As for the experimental part:
as §1

Assay [9] has as its system C. albicans ATCC 10231 (strain A). Kind of assay: MIC, broth microdilution (CLSI M27-A3), yeast strain A. The conditions noted are these: Candida albicans, ATCC10231; MIC-0, strain A, 35 °C 48 h. The format is cell-based, Candida albicans. On the procedure: as §1
Assay [10] has as its system Candida parapsilosis clinical isolate CP2. Kind of assay: MIC, broth microdilution (CLSI M27-A3), CP2. The note with it: Lodderomyces parapsilosis; MIC-0, CP2, 35 °C 48 h. The class given is cell-based. On the procedure: as §1
In assay [11] the test system is Candida krusei ATCC 6258 (strain I). Kind of assay: MIC, broth microdilution (CLSI M27-A3), yeast strain I. The format is cell-based. The conditions noted are these: Pichia kudriavzevii, ATCC6258; MIC-0, strain I, 35 °C 48 h. On the procedure:
as §1

The test system of assay [12] is C. albicans ATCC 90819(R) (strain D). Kind of assay: MIC, broth microdilution (CLSI M27-A3), yeast strain D. The class given is cell-based. The note with it: Candida albicans, ATCC90819; MIC-0, strain D, 35 °C 48 h. On the procedure:
as §1

Assay [13] has as its system C. neoformans clinical isolates CN1-3. The experiment in a line: MIC across C. neoformans clinical isolates CN1-3. The format is cell-based, Cryptococcus neoformans. As for the experimental part:
as §1

Assay [14] has as its system Candida glabrata clinical isolate CG2. The experiment in a line: MIC, broth microdilution (CLSI M27-A3), CG2. The class given is cell-based. The conditions noted are these: Nakaseomyces glabratus; MIC-0, CG2, 35 °C 48 h. On the procedure: as §1
For assay [15], the system named is Candida glabrata clinical isolate CG1. Kind of assay: MIC, broth microdilution (CLSI M27-A3), CG1. The format is cell-based. The conditions noted are these: Nakaseomyces glabratus; MIC-0, CG1, 35 °C 48 h. As for the experimental part: as §1
The subject of assay [16] is Aspergillus flavus ATCC MYA-3631 (strain K). The experiment in a line: MIC, filamentous fungi (CLSI M38-A2), strain K. The format is cell-based. The conditions noted are these: Aspergillus flavus, 72 h, MIC-0, strain K, 35 °C 72 h; read-out: MIC. On the procedure: as §2
Assay [17] deals with Cryptococcus neoformans clinical isolate CN2. The experiment in a line: MIC, broth microdilution (CLSI M27-A3), CN2. The class given is cell-based. The conditions noted are these: MIC-0, CN2, 35 °C 48 h. As for the experimental part:
as §1

Assay [18] has as its system Cryptococcus neoformans clinical isolate CN1. The experiment in a line: MIC, broth microdilution (CLSI M27-A3), CN1. The class given is cell-based. The conditions noted are these: MIC-0, CN1, 35 °C 48 h. On the procedure: as §1
Assay [19] relates to Aspergillus nidulans ATCC 38163 (strain L). Kind of assay: MIC, filamentous fungi (CLSI M38-A2), strain L. The format is cell-based. The note with it: Aspergillus nidulans, ATCC38163, 72 h, MIC-0, strain L, 35 °C 72 h; read-out: MIC. On the procedure: as §2
Assay [20] relates to C. albicans ATCC MYA-2876(S) (strain C). Kind of assay: MIC, broth microdilution (CLSI M27-A3), yeast strain C. The format is cell-based. The note with it: Candida albicans; MIC-0, strain C, 35 °C 48 h. On the procedure: as §1
For assay [21], the system named is Candida parapsilosis ATCC 22019 (strain J). Kind of assay: MIC, broth microdilution (CLSI M27-A3), yeast strain J. The format is cell-based. The note with it: Lodderomyces parapsilosis, ATCC22019; MIC-0, strain J, 35 °C 48 h. On the procedure:
as §1

Assay [22] relates to Candida parapsilosis clinical isolate CP1. Kind of assay: MIC, broth microdilution (CLSI M27-A3), CP1. The class given is cell-based. The note with it: Lodderomyces parapsilosis; MIC-0, CP1, 35 °C 48 h. As for the experimental part: as §1
Assay [23] deals with Cryptococcus neoformans clinical isolate CN3. Kind of assay: MIC, broth microdilution (CLSI M27-A3), CN3. The format is cell-based. The note with it: MIC-0, CN3, 35 °C 48 h. On the procedure:
as §1

Structures are written as SMILES. Values after ≈ are worked out from the molar mass of the structure shown.

For `CC[C@H](C)C[C@H](C)CCCCCCCCC(=O)N[C@H]1C[C@@H](O)[C@@H](NCCN)NC(=O)[C@@H]2[C@@H](O)CCN2C(=O)[C@H]([C@H](O)CCN)NC(=O)[C@H]([C@H](O)[C@@H](O)c2ccc(O)cc2)NC(=O)[C@@H]2C[C@@H](O)CN2C(=O)[C@H]([C@@H](C)O)NC1=O` [CAS, caspofungin, reference compound], the minimum inhibitory concentration (MIC) in assay [1] is 0.06 µg/mL (≈ 0.0549 µM); in assay [2], 0.975 µg/mL (≈ 0.892 µM); in [3], 0.12 µg/mL (≈ 0.11 µM); in assay [4], 0.48 µg/mL (≈ 0.439 µM); in [5], above 31.3 µg/mL; in assay [6], 0.48 µg/mL (≈ 0.439 µM). For the same molecule, the MIC is 0.24 µg/mL (≈ 0.22 µM) in assay [7]; 0.24 µg/mL (≈ 0.22 µM) in assay [8]; 0.975 µg/mL (≈ 0.892 µM) in assay [9]; 0.48 µg/mL (≈ 0.439 µM) in assay [10]; 0.48 µg/mL (≈ 0.439 µM) in assay [11]; 0.12 µg/mL (≈ 0.11 µM) in assay [12]. Besides, the MIC in assay [14] is 0.24 µg/mL (≈ 0.22 µM); in [15], 1.95 µg/mL (≈ 1.78 µM); in [16], above 31.3 µg/mL; in assay [17], 31.3 µg/mL (≈ 28.6 µM); in assay [18], 15.6 µg/mL (≈ 14.3 µM); in assay [19], above 31.3 µg/mL. Moreover, the MIC in assay [20] was 0.06 µg/mL (≈ 0.0549 µM); in assay [21], 1.95 µg/mL (≈ 1.78 µM); in assay [22] it was 0.48 µg/mL (≈ 0.439 µM); in assay [23], 15.6 µg/mL (≈ 14.3 µM). Also, the MIC values entry in assay [13] is listed as “low to no activity”.

Usually MIC stands for the lowest concentration that inhibits growth of the organism.
